Experimental data: ChEMBL document CHEMBL4680208, “Sulfone derivatives enter the cytoplasm of Candida albicans sessile cells” (Eur J Med Chem, 2020)
The source made the active and inactive calls. The calls are words filed in the database; no cut-off is given here.

Key:
Candida albicans [1] = test: Antifungal activity against Candida albicans 90028 assessed as fungal growth inhibition at 16 ug/ml measured after 18 hrs by microdilution method relative to control; assay type: functional; settings: read-out: GI
Candida albicans [2] = test: Antifungal activity against Candida albicans 90028 assessed as fungal growth inhibition at 8 ug/ml measured after 18 hrs by microdilution method relative to control; assay type: functional; settings: read-out: GI
Candida albicans [3] = test: Antifungal activity against Candida albicans 90028 assessed as fungal growth inhibition at 4 ug/ml measured after 18 hrs by microdilution method relative to control; assay type: functional; settings: read-out: GI
Candida albicans [4] = test: Antifungal activity against Candida albicans 90028 assessed as fungal growth inhibition at 2 ug/ml measured after 18 hrs by microdilution method relative to control; assay type: functional; settings: read-out: GI
Candida albicans [5] = test: Antifungal activity against Candida albicans 90028 assessed as fungal growth inhibition at 1 ug/ml measured after 18 hrs by microdilution method relative to control; assay type: functional; settings: read-out: GI
Candida albicans [6] = test: Antifungal activity against Candida albicans 90028 assessed as fungal growth inhibition at 0.5 ug/ml measured after 18 hrs by microdilution method relative to control; assay type: functional; settings: read-out: GI
Candida albicans [7] = test: Antifungal activity against Candida albicans 90028 assessed as fungal growth inhibition at 0.25 ug/ml measured after 18 hrs by microdilution method relative to control; assay type: functional; settings: read-out: GI
Candida albicans [8] = test: Antifungal activity against Candida albicans 90028 assessed as fungal growth inhibition at 0.125 ug/ml measured after 18 hrs by microdilution method relative to control; assay type: functional; settings: read-out: GI
Candida albicans [9] = test: Antifungal activity against Candida albicans 90028 assessed as fungal growth inhibition at 0.0625 ug/ml measured after 18 hrs by microdilution method relative to control; assay type: functional; settings: read-out: GI
Candida albicans [10] = test: Antifungal activity against Candida albicans 90028 assessed as fungal growth inhibition at 0.0313 ug/ml measured after 18 hrs by microdilution method relative to control; assay type: functional; settings: read-out: GI
Candida albicans [11] = test: Antifungal activity against Candida albicans 90028 assessed as fungal growth inhibition at 16 ug/ml measured after 48 hrs by microdilution method relative to control; assay type: functional; settings: read-out: GI
Candida albicans [12] = test: Antifungal activity against Candida albicans 90028 assessed as fungal growth inhibition at 8 ug/ml measured after 48 hrs by microdilution method relative to control; assay type: functional; settings: read-out: GI
Candida albicans [13] = test: Antifungal activity against Candida albicans 90028 assessed as fungal growth inhibition at 4 ug/ml measured after 48 hrs by microdilution method relative to control; assay type: functional; settings: read-out: GI
Candida albicans [14] = test: Antifungal activity against Candida albicans 90028 assessed as fungal growth inhibition at 2 ug/ml measured after 48 hrs by microdilution method relative to control; assay type: functional; settings: read-out: GI
Candida albicans [15] = test: Antifungal activity against Candida albicans 90028 assessed as fungal growth inhibition at 1 ug/ml measured after 48 hrs by microdilution method relative to control; assay type: functional; settings: read-out: GI
Candida albicans [16] = test: Antifungal activity against Candida albicans 90028 assessed as fungal growth inhibition at 0.5 ug/ml measured after 48 hrs by microdilution method relative to control; assay type: functional; settings: read-out: GI
Candida albicans [17] = test: Antifungal activity against Candida albicans 90028 assessed as fungal growth inhibition at 0.25 ug/ml measured after 48 hrs by microdilution method relative to control; assay type: functional; settings: read-out: GI
Candida albicans [18] = test: Antifungal activity against Candida albicans 90028 assessed as fungal growth inhibition at 0.125 ug/ml measured after 48 hrs by microdilution method relative to control; assay type: functional; settings: read-out: GI
Candida albicans [19] = test: Antifungal activity against Candida albicans 90028 assessed as fungal growth inhibition at 0.0625 ug/ml measured after 48 hrs by microdilution method relative to control; assay type: functional; settings: read-out: GI
Candida albicans [20] = test: Antifungal activity against Candida albicans 90028 assessed as fungal growth inhibition at 0.0313 ug/ml measured after 48 hrs by microdilution method relative to control; assay type: functional; settings: read-out: GI
Candida albicans [21] = test: Antifungal activity against Candida albicans 90028 assessed as fungal growth inhibition measured after 48 hrs by microdilution method; assay type: functional
Candida albicans [22] = test: Fungicidal activity against Candida albicans 90028 preincubated for 48 hrs followed by plating on SD agar and measured after 48 hrs; assay type: functional; settings: time 96 hrs
[23] = Cytotoxicity against African green monkey Vero cells by XTT assay; assay type: cell-based; settings: chlorocebus sabaeus
[24] = Cytotoxicity against human MRC5 cells by CellTiter 96 Aqueous One Solution Reagent based assay; assay type: cell-based
[25] = Toxicity in Galleria mellonella larvae assessed as survival at 16 ug/ml relative to control; settings: at 16 µg/mL
[26] = Drug uptake in Galleria mellonella larvae assessed as increase in fluorescence in longitudinal larva slides measured after 2 hrs by fluorescence assay; assay type: ADME, tissue-based
Candida albicans [27] = test: Antifungal activity against Candida albicans 90028 infected in Galleria mellonella larvae at 16 ug/ml by H and E staining based histological analysis; assay type: functional, organism-based; settings: dose 16.0 µg/ml
Candida albicans [28] = test: Induction of plasma membrane permeabilization in Candida albicans infected in human MRC5 cells at 16 ug/ml measured after 18 hrs by propidium iodide staining based confocal laser scanning microscopy; assay type: functional, organism-based; settings: dose 16.0 µg/ml
Candida albicans [29] = test: Induction of plasma membrane permeabilization in Candida albicans infected in human TR146 cells at 16 ug/ml measured after 18 hrs by propidium iodide staining based confocal laser scanning microscopy; assay type: functional, organism-based; settings: dose 16.0 µg/ml
Candida albicans [30] = test: Induction of cell demise in Candida albicans infected in human TR146 cells at 16 ug/ml measured after 18 hrs by AO/propidium iodide staining based confocal laser scanning microscopy; assay type: functional, organism-based; settings: dose 16.0 µg/ml
Candida albicans [31] = test: Induction of cell demise in Candida albicans infected in human MRC5 cells at 16 ug/ml measured after 18 hrs by AO/propidium iodide staining based confocal laser scanning microscopy; assay type: functional, organism-based; settings: dose 16.0 µg/ml
Vero = test: Cytotoxicity against African green monkey Vero cells at 0.25 to 512 ug/ml by XTT assay relative to control; assay type: cell-based; settings: chlorocebus sabaeus, at 0.25 to 512 µg/mL, dose 0.25-512 µg/ml
[32] = Drug uptake in Galleria mellonella larvae assessed as increase in fluorescence near the proventriculus measured after 2 hrs by fluorescence assay; assay type: ADME
Candida albicans [33] = test: Antibiofilm activity against Candida albicans 90028 assessed as increasing in cell killing by XTT assay; assay type: functional

O=[N+]([O-])c1cc(S(=O)(=O)C(F)(F)I)ccc1N/N=C\c1ccc(C2=C3C=CC=[N+]3[B-](F)(F)n3cccc32)cc1
inhibition of growth at 16 µg/mL (Candida albicans [1]): 100% | inhibition of growth at 8 µg/mL (Candida albicans [2]): 100% | inhibition of growth at 4 µg/mL (Candida albicans [3]): 100% | inhibition of growth at 2 µg/mL (Candida albicans [4]): 100% | inhibition of growth at 1 µg/mL (Candida albicans [5]): 100% | inhibition of growth at 0.5 µg/mL (Candida albicans [6]): 100% | inhibition of growth at 0.25 µg/mL (Candida albicans [7]): 100% | inhibition of growth at 0.125 µg/mL (Candida albicans [8]): 100% | inhibition of growth at 0.0625 µg/mL (Candida albicans [9]): 100% | inhibition of growth at 0.0313 µg/mL (Candida albicans [10]): 100% | inhibition of growth at 16 µg/mL (Candida albicans [11]): 100% | inhibition of growth at 8 µg/mL (Candida albicans [12]): 100% | inhibition of growth at 4 µg/mL (Candida albicans [13]): 100% | inhibition of growth at 2 µg/mL (Candida albicans [14]): 100% | inhibition of growth at 1 µg/mL (Candida albicans [15]): 100% | inhibition of growth at 0.5 µg/mL (Candida albicans [16]): 100% | inhibition of growth at 0.25 µg/mL (Candida albicans [17]): 97% | inhibition of growth at 0.125 µg/mL (Candida albicans [18]): 95.5% | inhibition of growth at 0.0625 µg/mL (Candida albicans [19]): 94.3% | inhibition of growth at 0.0313 µg/mL (Candida albicans [20]): 75.8% | MIC (Candida albicans [21]): inactive | MFC (Candida albicans [22]): ≥ 16 µg/mL | CC50 [23]: ≥ 8 µg/mL | CC50 [24]: ≥ 16 µg/mL | survival [25]: 100% | Drug uptake [26]: Not Active | Activity (Candida albicans [27]): inactive | Activity (Candida albicans [28]): Active | Activity (Candida albicans [29]): Active | Activity (Candida albicans [30]): Active | Activity (Candida albicans [31]): Active

O=[N+]([O-])c1cc(S(=O)(=O)C(F)(F)Cl)ccc1N/N=C\c1ccc(C2=C3C=CC=[N+]3[B-](F)(F)n3cccc32)cc1
inhibition of growth at 16 µg/mL (Candida albicans [1]): 100% | inhibition of growth at 8 µg/mL (Candida albicans [2]): 100% | inhibition of growth at 4 µg/mL (Candida albicans [3]): 100% | inhibition of growth at 2 µg/mL (Candida albicans [4]): 99.9% | inhibition of growth at 1 µg/mL (Candida albicans [5]): 100% | inhibition of growth at 0.5 µg/mL (Candida albicans [6]): 99.8% | inhibition of growth at 0.25 µg/mL (Candida albicans [7]): 100% | inhibition of growth at 0.125 µg/mL (Candida albicans [8]): 99.8% | inhibition of growth at 0.0625 µg/mL (Candida albicans [9]): 100% | inhibition of growth at 0.0313 µg/mL (Candida albicans [10]): 100% | inhibition of growth at 16 µg/mL (Candida albicans [11]): 100% | inhibition of growth at 8 µg/mL (Candida albicans [12]): 100% | inhibition of growth at 4 µg/mL (Candida albicans [13]): 100% | inhibition of growth at 2 µg/mL (Candida albicans [14]): 100% | inhibition of growth at 1 µg/mL (Candida albicans [15]): 100% | inhibition of growth at 0.5 µg/mL (Candida albicans [16]): 100% | inhibition of growth at 0.25 µg/mL (Candida albicans [17]): 99.9% | inhibition of growth at 0.125 µg/mL (Candida albicans [18]): 100% | inhibition of growth at 0.0625 µg/mL (Candida albicans [19]): 99.8% | inhibition of growth at 0.0313 µg/mL (Candida albicans [20]): 99.8% | MIC (Candida albicans [21]): inactive | MFC (Candida albicans [22]): ≥ 16 µg/mL | Activity (Vero): 100% | CC50 [24]: ≥ 16 µg/mL | survival [25]: 93% | Drug uptake [26]: Not Active | Drug uptake [32]: Active | Activity (Candida albicans [27]): inactive | Activity (Candida albicans [28]): Active | Activity (Candida albicans [29]): Active | Activity (Candida albicans [30]): Active | Activity (Candida albicans [31]): Active

C[C@@H]1[C@H](O)[C@@H](C)/C=C/C=C/C=C/C=C/C=C/C=C/C=C/[C@H](O[C@@H]2O[C@H](C)[C@@H](O)[C@H](N)[C@@H]2O)C[C@@H]2O[C@](O)(C[C@@H](O)C[C@@H](O)[C@H](O)CC[C@@H](O)C[C@@H](O)CC(=O)O[C@H]1C)C[C@H](O)[C@H]2C(=O)O
Activity (Candida albicans [33]): Active
